# From ChEMBL document CHEMBL3885881, “DrugMatrix”
# Species on record: Rattus norvegicus
# Assay: DrugMatrix - Regimen: Daily Repeat
# Format: toxicity, organism-based, Sprague-Dawley
# Parameters: regimen Daily Repeat, gender Male, age 6-8 weeks
# Conditions: in vivo, po, route oral GAVAGE, vehicle 100 % WATER; for ABSOLUTE BASOPHIL / ABSOLUTE EOSINOPHIL / ABSOLUTE LYMPHOCYTE / ABSOLUTE MONOCYTE / ABSOLUTE SEGMENTED NEUTROPHIL / BASOPHIL / EOSINOPHIL / ERYTHROCYTE COUNT / HEMATOCRIT / HEMOGLOBIN / LEUKOCYTE COUNT / LYMPHOCYTE / MEAN CORPUSCULAR HEMOGLOBIN / MEAN CORPUSCULAR HEMOGLOBIN CONCENTRATION / MEAN CORPUSCULAR VOLUME / MONOCYTE / NEUTROPHIL / NUCLEATED RED BLOOD CELLS / PLATELET COUNT: tissue Blood; for ALANINE AMINOTRANSFERASE / ALBUMIN / ALKALINE PHOSPHATASE / ASPARTATE AMINOTRANSFERASE / BLOOD UREA NITROGEN / CARBON DIOXIDE / CHLORIDE / CHOLESTEROL / CREATINE PHOSPHOKINASE / CREATININE / GLUCOSE / LACTATE DEHYDROGENASE / LIPASE / PHOSPHORUS / POTASSIUM / SODIUM / TOTAL BILIRUBIN / TOTAL PROTEIN / URIC ACID: tissue Plasma
# [1] = 0 mg/kg, 72 h, dose level Control, time 3 day
# [2] = 0 mg/kg, 120 h, dose level Control, time 5 day
# [3] = 45 mg/kg, 72 h, dose level Low, time 3 day
# [4] = 45 mg/kg, 120 h, dose level Low, time 5 day
smiles,measurement,setting,value
CCOC(N)=O,ABSOLUTE BASOPHIL,[1],0 CELLS/uL
same,ABSOLUTE EOSINOPHIL,[1],123.17 CELLS/uL
same,ABSOLUTE LYMPHOCYTE,[1],12677.83 CELLS/uL
same,ABSOLUTE MONOCYTE,[1],66.17 CELLS/uL
same,ABSOLUTE SEGMENTED NEUTROPHIL,[1],1149.5 CELLS/uL
same,BASOPHIL,[1],0%
same,EOSINOPHIL,[1],0.83%
same,ERYTHROCYTE COUNT,[1],5.26 x10E6/uL
same,HEMATOCRIT,[1],33.07%
same,HEMOGLOBIN,[1],13.43 G/DL
same,LEUKOCYTE COUNT,[1],14.02 x10E3/uL
same,LYMPHOCYTE,[1],90.17%
same,MEAN CORPUSCULAR HEMOGLOBIN,[1],25.62 pg
same,MEAN CORPUSCULAR HEMOGLOBIN CONCENTRATION,[1],40.65 G/DL
same,MEAN CORPUSCULAR VOLUME,[1],63 fL
same,MONOCYTE,[1],0.5%
same,NEUTROPHIL,[1],8.5%
same,NUCLEATED RED BLOOD CELLS,[1],0.17 /100WBC
same,PLATELET COUNT,[1],1142.83 x10E3/uL
same,ALANINE AMINOTRANSFERASE,[1],45.17 u/L
same,ALBUMIN,[1],3.78 G/DL
same,ALKALINE PHOSPHATASE,[1],340.17 u/L
same,ASPARTATE AMINOTRANSFERASE,[1],77.33 u/L
same,BLOOD UREA NITROGEN,[1],14.67 mg/dL
same,CARBON DIOXIDE,[1],28.67 mmol/L
same,CHLORIDE,[1],101.17 MEQ/L
same,CHOLESTEROL,[1],77.67 mg/dL
same,CREATINE PHOSPHOKINASE,[1],263.67 u/L
same,CREATININE,[1],0.15 mg/dL
same,GLUCOSE,[1],169.33 mg/dL
same,LACTATE DEHYDROGENASE,[1],230 u/L
same,LIPASE,[1],9.67 u/L
same,PHOSPHORUS,[1],11.8 mg/dL
same,POTASSIUM,[1],5.91 MEQ/L
same,SODIUM,[1],142.88 MEQ/L
same,TOTAL BILIRUBIN,[1],0.22 mg/dL
same,TOTAL PROTEIN,[1],5.7 G/DL
same,URIC ACID,[1],1.35 mg/dL
same,ABSOLUTE BASOPHIL,[2],0 CELLS/uL
same,ABSOLUTE EOSINOPHIL,[2],125 CELLS/uL
same,ABSOLUTE LYMPHOCYTE,[2],13809 CELLS/uL
same,ABSOLUTE MONOCYTE,[2],351 CELLS/uL
same,ABSOLUTE SEGMENTED NEUTROPHIL,[2],1581.67 CELLS/uL
same,BASOPHIL,[2],0%
same,EOSINOPHIL,[2],0.67%
same,ERYTHROCYTE COUNT,[2],5.53 x10E6/uL
same,HEMATOCRIT,[2],34.83%
same,HEMOGLOBIN,[2],13.9 G/DL
same,LEUKOCYTE COUNT,[2],15.87 x10E3/uL
same,LYMPHOCYTE,[2],87.5%
same,MEAN CORPUSCULAR HEMOGLOBIN,[2],25.25 pg
same,MEAN CORPUSCULAR HEMOGLOBIN CONCENTRATION,[2],40.08 G/DL
same,MEAN CORPUSCULAR VOLUME,[2],63.05 fL
same,MONOCYTE,[2],2.17%
same,NEUTROPHIL,[2],9.67%
same,NUCLEATED RED BLOOD CELLS,[2],0 /100WBC
same,PLATELET COUNT,[2],1044 x10E3/uL
same,ALANINE AMINOTRANSFERASE,[2],50.67 u/L
same,ALBUMIN,[2],4.33 G/DL
same,ALKALINE PHOSPHATASE,[2],395 u/L
same,ASPARTATE AMINOTRANSFERASE,[2],86 u/L
same,BLOOD UREA NITROGEN,[2],15.33 mg/dL
same,CARBON DIOXIDE,[2],29.33 mmol/L
same,CHLORIDE,[2],101.5 MEQ/L
same,CHOLESTEROL,[2],71.33 mg/dL
same,CREATINE PHOSPHOKINASE,[2],323.17 u/L
same,CREATININE,[2],0.18 mg/dL
same,GLUCOSE,[2],145.67 mg/dL
same,LACTATE DEHYDROGENASE,[2],389.5 u/L
same,LIPASE,[2],9.83 u/L
same,PHOSPHORUS,[2],11.35 mg/dL
same,POTASSIUM,[2],6.39 MEQ/L
same,SODIUM,[2],142.77 MEQ/L
same,TOTAL BILIRUBIN,[2],0.18 mg/dL
same,TOTAL PROTEIN,[2],6.1 G/DL
same,URIC ACID,[2],1.52 mg/dL
same,ABSOLUTE BASOPHIL,[3],0 CELLS/uL
same,ABSOLUTE EOSINOPHIL,[3],0 CELLS/uL
same,ABSOLUTE LYMPHOCYTE,[3],12480 CELLS/uL
same,ABSOLUTE MONOCYTE,[3],82.67 CELLS/uL
same,ABSOLUTE SEGMENTED NEUTROPHIL,[3],1104 CELLS/uL
same,BASOPHIL,[3],0%
same,EOSINOPHIL,[3],0%
same,ERYTHROCYTE COUNT,[3],5.25 x10E6/uL
same,HEMATOCRIT,[3],34.27%
same,HEMOGLOBIN,[3],13.87 G/DL
same,LEUKOCYTE COUNT,[3],13.67 x10E3/uL
same,LYMPHOCYTE,[3],91.33%
same,MEAN CORPUSCULAR HEMOGLOBIN,[3],26.43 pg
same,MEAN CORPUSCULAR HEMOGLOBIN CONCENTRATION,[3],40.47 G/DL
same,MEAN CORPUSCULAR VOLUME,[3],65.23 fL
same,MONOCYTE,[3],0.67%
same,NEUTROPHIL,[3],8%
same,NUCLEATED RED BLOOD CELLS,[3],0.33 /100WBC
same,PLATELET COUNT,[3],1224 x10E3/uL
same,ALANINE AMINOTRANSFERASE,[3],48.67 u/L
same,ALBUMIN,[3],3.73 G/DL
same,ALKALINE PHOSPHATASE,[3],327 u/L
same,ASPARTATE AMINOTRANSFERASE,[3],72 u/L
same,BLOOD UREA NITROGEN,[3],14 mg/dL
same,CARBON DIOXIDE,[3],31.33 mmol/L
same,CHLORIDE,[3],100.67 MEQ/L
same,CHOLESTEROL,[3],75.67 mg/dL
same,CREATINE PHOSPHOKINASE,[3],181.67 u/L
same,CREATININE,[3],0.14 mg/dL
same,GLUCOSE,[3],154 mg/dL
same,LACTATE DEHYDROGENASE,[3],151.67 u/L
same,LIPASE,[3],10 u/L
same,PHOSPHORUS,[3],12.13 mg/dL
same,POTASSIUM,[3],7.17 MEQ/L
same,SODIUM,[3],142.87 MEQ/L
same,TOTAL BILIRUBIN,[3],0.17 mg/dL
same,TOTAL PROTEIN,[3],5.53 G/DL
same,URIC ACID,[3],1.63 mg/dL
same,ABSOLUTE BASOPHIL,[4],0 CELLS/uL
same,ABSOLUTE EOSINOPHIL,[4],0 CELLS/uL
same,ABSOLUTE LYMPHOCYTE,[4],10640.67 CELLS/uL
same,ABSOLUTE MONOCYTE,[4],292.67 CELLS/uL
same,ABSOLUTE SEGMENTED NEUTROPHIL,[4],1133.33 CELLS/uL
same,BASOPHIL,[4],0%
same,EOSINOPHIL,[4],0%
same,ERYTHROCYTE COUNT,[4],5.57 x10E6/uL
same,HEMATOCRIT,[4],35.5%
same,HEMOGLOBIN,[4],14.37 G/DL
same,LEUKOCYTE COUNT,[4],12.07 x10E3/uL
same,LYMPHOCYTE,[4],88.67%
same,MEAN CORPUSCULAR HEMOGLOBIN,[4],25.77 pg
same,MEAN CORPUSCULAR HEMOGLOBIN CONCENTRATION,[4],40.47 G/DL
same,MEAN CORPUSCULAR VOLUME,[4],63.8 fL
same,MONOCYTE,[4],2.33%
same,NEUTROPHIL,[4],9%
same,NUCLEATED RED BLOOD CELLS,[4],0 /100WBC
same,PLATELET COUNT,[4],1349.67 x10E3/uL
same,ALANINE AMINOTRANSFERASE,[4],45 u/L
same,ALBUMIN,[4],4.53 G/DL
same,ALKALINE PHOSPHATASE,[4],393.33 u/L
same,ASPARTATE AMINOTRANSFERASE,[4],72 u/L
same,BLOOD UREA NITROGEN,[4],14.67 mg/dL
same,CARBON DIOXIDE,[4],33 mmol/L
same,CHLORIDE,[4],101 MEQ/L
same,CHOLESTEROL,[4],75 mg/dL
same,CREATINE PHOSPHOKINASE,[4],138.67 u/L
same,CREATININE,[4],0.19 mg/dL
same,GLUCOSE,[4],156.33 mg/dL
same,LACTATE DEHYDROGENASE,[4],85.67 u/L
same,LIPASE,[4],10 u/L
same,PHOSPHORUS,[4],11.27 mg/dL
same,POTASSIUM,[4],6.72 MEQ/L
same,SODIUM,[4],144.8 MEQ/L
same,TOTAL BILIRUBIN,[4],0.23 mg/dL
same,TOTAL PROTEIN,[4],6.3 G/DL
same,URIC ACID,[4],1.6 mg/dL
